Experimental data as given in patent publication US10702487B2, “Pharmaceutical composition for prevention of diet induced obesity” (FRIMLINE PRIVATE LIMITED, priority 2017, dated 2020).

Tests used:
Type in all cases: in vivo, Male Wistar Rats
[1] = test system: High fat diet induced obesity model in rat; assay: High fat diet induced obesity model in rat: body weight; conditions: HFD-fed rats, end of 12 weeks, p.o., mean; for % increase in body weight: in comparison to normal control group; for Body weight: OEA 41, L-Valine 2, Pantethine 31, Orlistat 10 mg/kg
Procedure: (§1) Screening anti-obesity effect of synergistic combination or composition/formulation comprising OEA and other natural ingredients using High fat diet induced obesity model in rat. […] To maintain appropriate conditions, temperature and relative humidity were recorded three times daily. During complete experiment, animals were supplied with the standard certified rat pellet feed (manufactured by VRK Nutritional Solutions, Pune) and drinking water treated by the reverse osmosis ad libitum. […] In order to evaluate the anti-obesity effect, forty-eight (48) male rats were screened and divided into eight groups. For a comparative analysis, the groups were divided as follows: normal control, disease control, treatment groups with individual component, reference standard drug and test composition/formulation of the present invention. […] The animals under consideration were examined for a study period of 12 weeks. Animals in group (G1) were given normal pellet diet, wherein the other groups were on high fat diet. After completion of study for 12 weeks, each group was analyzed in terms of the body weight and other evaluating parameters such as serum biochemistry (triglyceride, total cholesterol and low density lipoprotein cholesterol (LDL), analysis of liver homogenates and histopathology of liver. Obesity is essentially due to an excessive accumulation of the fatty tissues which leads to many diseases, not limited to insulin resistance, diabetes, fatty liver disease, coronary artery disease, hypertension and polycystic ovary syndrome. In obese conditions, the level of total cholesterol, triglyceride and LDL-cholesterol reaches beyond the normal ranges in human beings. Similarly, high fat diet model in rat is universally accepted model to test the efficacy of the drug for the treatment of obesity. In the above experimental procedure, obesity was induced by administration of a high fat diet (HFD) for the period of 12 weeks. For comparison, the normal control group animals were given a normal pellet diet, whereas the remaining groups were fed with the HFD. As a routine experiment, all animals' body weights were observed on weekly basis. Further, various serum biochemistry parameters such as Triglyceride, total cholesterol and LDL-cholesterol were analyzed at the end of the 12-week treatment period. In this regard, at the end of study period, all animals were euthanized and the liver was isolated. The liver homogenate of each individual animal was prepared and subjected for determination of the level of total cholesterol and Triglyceride. Further, part of the liver was used for histopathological investigation purpose. The primary observation during the experiment was monitoring the body weight of animals. Though the animals were tested weekly for the change in the body weight, an average body weight was measured at the end of 12 weeks, and is tabulated in the Table 2.

[2] = test system: High fat diet induced obesity model in rat; assay: High fat diet induced obesity model in rat: serum biochemistry; conditions: HFD-fed rats, 12 weeks, p.o.; for LDL / Total Cholesterol / Triglyceride: mean; for LDL % Decrease / Total Cholesterol % Decrease / Triglyceride % Decrease: versus disease control
Procedure: as §1, with “purpose.” for “purpose. The primary observation during the experiment was monitoring the body weight of animals. Though the animals were tested weekly for the change in the body weight, an average body weight was measured at the end of 12 weeks, and is tabulated in the Table 2.”

[3] = test system: High fat diet induced obesity model in rat; assay: High fat diet induced obesity model in rat: analysis of liver homogenates; conditions: liver homogenate, HFD-fed rats, 12 weeks, p.o.; for Total Cholesterol / Triglyceride: mean; for Total Cholesterol % Decrease / Triglyceride % Decrease: versus disease control
Procedure: as §1, with “purpose.” for “purpose. The primary observation during the experiment was monitoring the body weight of animals. Though the animals were tested weekly for the change in the body weight, an average body weight was measured at the end of 12 weeks, and is tabulated in the Table 2.”

CC(C)[C@H](N)C(=O)O [L-Valine]
% increase in body weight [1]: 22.71% | Body weight [1]: 338.67 gm | LDL [2]: 55.45 mg/dL | Total Cholesterol [2]: 140.00 mg/dL | Triglyceride [2]: 115.23 mg/dL | LDL % Decrease [2]: 4.35% | Total Cholesterol % Decrease [2]: 4.92% | Triglyceride % Decrease [2]: 6.15% | Total Cholesterol [3]: 85.23 mg/dL | Triglyceride [3]: 80.02 mg/dL | Total Cholesterol % Decrease [3]: 5.56% | Triglyceride % Decrease [3]: 3.59%

CCCCCCCC/C=C\CCCCCCCC(=O)NCCO [OEA, Oleoylethanolamide]
% increase in body weight [1]: 12.32% | Body weight [1]: 310.00 gm | LDL [2]: 35.54 mg/dL | Total Cholesterol [2]: 105.54 mg/dL | Triglyceride [2]: 100.05 mg/dL | LDL % Decrease [2]: 38.70% | Total Cholesterol % Decrease [2]: 28.32% | Triglyceride % Decrease [2]: 18.51% | Total Cholesterol [3]: 74.12 mg/dL | Triglyceride [3]: 59.98 mg/dL | Total Cholesterol % Decrease [3]: 17.87% | Triglyceride % Decrease [3]: 27.74%

CCCCCCCCCCC[C@@H](C[C@@H]1OC(=O)[C@H]1CCCCCC)OC(=O)[C@H](CC(C)C)NC=O [Orlistat]
% increase in body weight [1]: 7.97% | Body weight [1]: 298.00 gm | LDL [2]: 25.74 mg/dL | Total Cholesterol [2]: 84.27 mg/dL | Triglyceride [2]: 77.62 mg/dL | LDL % Decrease [2]: 55.60% | Total Cholesterol % Decrease [2]: 42.77% | Triglyceride % Decrease [2]: 36.78% | Total Cholesterol [3]: 60.33 mg/dL | Triglyceride [3]: 44.82 mg/dL | Total Cholesterol % Decrease [3]: 33.15% | Triglyceride % Decrease [3]: 46.00%
